Values of other authors as cited in paper PMC9460038, “Antigiardial Activity of Foeniculum vulgare Hexane Extract and Some of Its Constituents” (Plants, 2022).

Tested on: multidrug resistant (MDR) clinical isolates of Mycobacterium tuberculosis
Conditions: three MDR clinical isolates; cited from earlier work

For `CCCCCC/C=C/C=C/C=O` [Trans, trans-2,4-undecadienal, trans, trans-2,4-undecadienal], the MIC is listed as 25 to 50 µg/mL.
